Assay results: patent publication US12398101B2, “Herbicidal 2-azaspiro[3-5]nonane compounds” (SYNGENTA CROP PROTECTION AG, priority 2018, dated 2025)

Legend:
Format in all cases: in vivo
Settings in all cases: 250 g/h, evaluated after 13 days
Setaria faberi (SETFA) [1] = assay: Glasshouse herbicide test, post-emergence application
Protocol: (§1) Seeds of a variety of test species are sown in standard soil in pots (Lolium perenne (LOLPE), Setaria faberi (SETFA), Echinochloa crus-galli (ECHCG), Avena fatua (AVEFA)). After cultivation for one day (pre-emergence) or after 8 days cultivation (post-emergence) under controlled conditions in a glasshouse (at 24/16° C., day/night; 14 hours light; 65% humidity), the plants are sprayed with an aqueous spray solution derived from the formulation of the technical active ingredient in acetone/water (50:50) solution containing 0.5% Tween 20 (polyoxyethelyene sorbitan monolaurate, CAS RN 9005-64-5). Compounds are applied at 250 g/h. The test plants are then grown in a glasshouse under controlled conditions in a glasshouse (at 24/16° C., day/night; 14 hours light; 65% humidity) and watered twice daily. After 13 days for pre and post-emergence, the test is evaluated for the percentage damage caused to the plant. The biological activities are shown in the following table on a five point scale (5=80-100%; 4=60-79%; 3=40-59%; 2=20-39%; 1=0-19%).

Avena fatua (AVEFA) [2] = assay: as above
Protocol: as §1

Lolium perenne (LOLPE) [3] = assay: as above
Protocol: as §1

[4] = tested on: Echinochloa crus-galli (ECHCG); assay: as above
Protocol: as §1

Setaria faberi (SETFA) [5] = assay: Glasshouse herbicide test, pre-emergence application
Protocol: as §1

Avena fatua (AVEFA) [6] = assay: as above
Protocol: as §1

Lolium perenne (LOLPE) [7] = assay: as above
Protocol: as §1

[8] = tested on: Echinochloa crus-galli (ECHCG); assay: as above
Protocol: as §1

Compound	percentage damage caused to the plant, five point scale, SETFA (Setaria faberi (SETFA) [1])	percentage damage caused to the plant, five point scale, AVEFA (Avena fatua (AVEFA) [2])	percentage damage caused to the plant, five point scale, LOLPE (Lolium perenne (LOLPE) [3])	percentage damage caused to the plant, five point scale, ECHCG [4]	percentage damage caused to the plant, five point scale, SETFA (Setaria faberi (SETFA) [5])	percentage damage caused to the plant, five point scale, AVEFA (Avena fatua (AVEFA) [6])	percentage damage caused to the plant, five point scale, LOLPE (Lolium perenne (LOLPE) [7])	percentage damage caused to the plant, five point scale, ECHCG [8]
CC#Cc1cc(C)c(C2C(=O)CC3(CC2=O)CN(C(=O)NC(=O)c2ccccn2)C3)c(OC)c1 [Compound 1.022]	5 (5=80-100%)	5 (5=80-100%)	5 (5=80-100%)	5 (5=80-100%)	5 (5=80-100%)	2 (2=20-39%)	3 (3=40-59%)	4 (4=60-79%)
CC#Cc1cc(C)c(C2C(=O)CC3(CC2=O)CN(C(=O)NC(=O)C(C)(C)C)C3)c(C)c1 [Compound 1.007]	4 (4=60-79%)	4 (4=60-79%)	5 (5=80-100%)	5 (5=80-100%)	5 (5=80-100%)	3 (3=40-59%)	5 (5=80-100%)	5 (5=80-100%)
CC#Cc1cc(C)c(C2C(=O)CC3(CC2=O)CN(C(=O)c2ccccc2)C3)c(OC)c1 [Compound 1.015]	5 (5=80-100%)	5 (5=80-100%)	5 (5=80-100%)	5 (5=80-100%)	5 (5=80-100%)	5 (5=80-100%)	5 (5=80-100%)	5 (5=80-100%)
CC#Cc1cc(C)c(C2C(=O)CC3(CC2=O)CN(C(=O)COC)C3)c(C)c1 [Compound 1.005]	5 (5=80-100%)	5 (5=80-100%)	5 (5=80-100%)	5 (5=80-100%)	5 (5=80-100%)	5 (5=80-100%)	5 (5=80-100%)	5 (5=80-100%)
CC#Cc1cc(C)c(C2C(=O)CC3(CC2=O)CN(C(=O)NC(=O)c2ccccn2)C3)c(C)c1 [Compound 1.011]	5 (5=80-100%)	3 (3=40-59%)	3 (3=40-59%)	3 (3=40-59%)	3 (3=40-59%)	1 (1=0-19%)	2 (2=20-39%)	2 (2=20-39%)
CC#Cc1cc(C)c(C2C(=O)CC3(CC2=O)CN(C(=O)C(C)(C)C)C3)c(C)c1 [Compound 1.010]	5 (5=80-100%)	5 (5=80-100%)	5 (5=80-100%)	5 (5=80-100%)	5 (5=80-100%)	5 (5=80-100%)	5 (5=80-100%)	5 (5=80-100%)
CC#Cc1cc(C)c(C2C(=O)CC3(CC2=O)CN(C(=O)COC)C3)c(OC)c1 [Compound 1.017]	5 (5=80-100%)	5 (5=80-100%)	5 (5=80-100%)	4 (4=60-79%)	5 (5=80-100%)	5 (5=80-100%)	5 (5=80-100%)	5 (5=80-100%)
CC#Cc1cc(C)c(C2C(=O)CC3(CC2=O)CN(C(=O)C(C)(C)C)C3)c(OC)c1 [Compound 1.021]	5 (5=80-100%)	5 (5=80-100%)	5 (5=80-100%)	5 (5=80-100%)	5 (5=80-100%)	5 (5=80-100%)	5 (5=80-100%)	5 (5=80-100%)
